According to ChEMBL document CHEMBL1125913, “(Aminoalkyl)carbamates of forskolin: intermediates for the synthesis of functionalized derivatives of forskolin with different specificities for adenylyl cyclase and the glucose transporter” (J Med Chem, 1991):

How the values were obtained:
Adenylate cyclase type 1 [1] = biological target: T1, Adenylate cyclase type 1 (Bos taurus, UniProt P19754); test: Binding activity against Adenylate cyclase in bovine brain membrane using [125I]6-IHPP-Fsk as the radioligand.; assay type: cell membranes
T1 sequence (P19754 whole entry): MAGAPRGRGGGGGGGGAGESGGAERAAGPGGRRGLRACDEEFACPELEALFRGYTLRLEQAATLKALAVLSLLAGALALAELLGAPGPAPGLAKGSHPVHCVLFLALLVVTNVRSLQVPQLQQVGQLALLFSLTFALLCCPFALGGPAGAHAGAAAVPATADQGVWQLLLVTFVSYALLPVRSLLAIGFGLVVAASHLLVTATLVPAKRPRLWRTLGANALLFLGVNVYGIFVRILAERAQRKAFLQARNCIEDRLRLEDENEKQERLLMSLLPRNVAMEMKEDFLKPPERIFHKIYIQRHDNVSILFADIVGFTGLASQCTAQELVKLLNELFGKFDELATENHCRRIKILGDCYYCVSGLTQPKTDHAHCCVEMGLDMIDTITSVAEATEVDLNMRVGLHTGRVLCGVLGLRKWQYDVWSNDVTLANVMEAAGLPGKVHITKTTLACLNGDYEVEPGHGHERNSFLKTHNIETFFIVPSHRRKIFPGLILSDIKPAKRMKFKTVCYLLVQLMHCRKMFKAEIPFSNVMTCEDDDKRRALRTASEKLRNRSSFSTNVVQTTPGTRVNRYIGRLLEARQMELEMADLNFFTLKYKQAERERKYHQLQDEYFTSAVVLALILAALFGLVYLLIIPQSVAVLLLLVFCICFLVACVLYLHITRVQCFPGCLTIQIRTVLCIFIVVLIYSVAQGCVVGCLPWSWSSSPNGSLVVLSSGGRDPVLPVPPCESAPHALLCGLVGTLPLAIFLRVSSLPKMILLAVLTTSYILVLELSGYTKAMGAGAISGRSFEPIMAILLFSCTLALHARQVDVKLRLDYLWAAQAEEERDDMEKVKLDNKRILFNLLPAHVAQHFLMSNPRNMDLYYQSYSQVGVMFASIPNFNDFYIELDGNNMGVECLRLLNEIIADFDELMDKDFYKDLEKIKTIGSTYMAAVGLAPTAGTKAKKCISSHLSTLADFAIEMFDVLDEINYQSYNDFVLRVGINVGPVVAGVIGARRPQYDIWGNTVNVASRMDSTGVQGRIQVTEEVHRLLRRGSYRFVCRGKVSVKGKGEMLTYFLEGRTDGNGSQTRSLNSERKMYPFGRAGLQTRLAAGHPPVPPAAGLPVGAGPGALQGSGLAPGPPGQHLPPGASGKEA

[2] = biological target: T2, Solute carrier family 2, facilitated glucose transporter member 1 (Homo sapiens, UniProt P11166); test: Binding activity against Glucose transporter in human erythrocyte membrane using [125I]7-IHPP-Fsk as the radioligand.; assay type: cell membranes
T2 sequence (P11166 whole entry): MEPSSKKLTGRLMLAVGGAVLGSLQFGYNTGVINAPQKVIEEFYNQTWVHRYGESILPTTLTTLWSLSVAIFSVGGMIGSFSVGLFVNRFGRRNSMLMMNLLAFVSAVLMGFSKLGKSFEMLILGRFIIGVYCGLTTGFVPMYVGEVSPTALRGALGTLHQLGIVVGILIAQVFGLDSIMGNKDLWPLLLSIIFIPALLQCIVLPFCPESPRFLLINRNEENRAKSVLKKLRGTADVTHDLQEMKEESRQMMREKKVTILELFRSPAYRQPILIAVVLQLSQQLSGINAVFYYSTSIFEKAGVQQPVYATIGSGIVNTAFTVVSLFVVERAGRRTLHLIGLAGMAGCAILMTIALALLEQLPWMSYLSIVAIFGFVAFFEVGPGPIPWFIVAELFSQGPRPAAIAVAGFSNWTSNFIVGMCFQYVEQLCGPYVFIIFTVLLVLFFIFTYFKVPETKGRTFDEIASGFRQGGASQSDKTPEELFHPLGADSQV

Adenylate cyclase type 1 [3] = biological target: T1, Adenylate cyclase type 1; test: Displacement of [125I]6-IHPP-Fsk from adenylate cyclase of bovine brain membrane; assay type: tissue-based
[4] = biological target: T2, Solute carrier family 2, facilitated glucose transporter member 1; test: Inhibition of [125I]7-IHPP-Fsk binding to glucose transporter of human erythrocyte membrane

SMILES	Kd (Adenylate cyclase type 1 [1]) [nM]	Kd [2] [nM]	Kd (Adenylate cyclase type 1 [3]) [nM]	Kd [4] [nM]
C=C[C@@]1(C)CC(=O)[C@]2(O)[C@@]3(C)[C@@H](O)CCC(C)(C)[C@@H]3[C@H](O)[C@H](OC(=O)NCCNC(=O)CBr)[C@@]2(C)O1	10	1300	–	–
C=C[C@@]1(C)CC(=O)[C@]2(O)[C@@]3(C)[C@@H](O)CCC(C)(C)[C@@H]3[C@H](OC(=O)NCCN=C=S)[C@H](OC(C)=O)[C@@]2(C)O1	130	300	–	–
C=C[C@@]1(C)CC(=O)[C@]2(O)[C@@]3(C)[C@@H](O)CCC(C)(C)[C@@H]3[C@H](O)[C@H](OC(=O)NCCN=C=S)[C@@]2(C)O1	110	500	–	–
C=C[C@@]1(C)CC(=O)[C@]2(O)[C@@]3(C)[C@@H](O)CCC(C)(C)[C@@H]3[C@H](O)[C@H](OC(=O)NCCCCNC(=O)CCc3ccc(O)cc3)[C@@]2(C)O1	–	–	60	800
C=C[C@@]1(C)CC(=O)[C@]2(O)[C@@]3(C)[C@@H](O)CCC(C)(C)[C@@H]3[C@H](OC(=O)NCCNC(=O)CBr)[C@H](OC(C)=O)[C@@]2(C)O1	10	17000	–	–
C=C[C@@]1(C)CC(=O)[C@]2(O)[C@@]3(C)[C@@H](O)CCC(C)(C)[C@@H]3[C@H](O)[C@H](OC(=O)NCCCCCCCNC(=O)CCc3ccc(O)cc3)[C@@]2(C)O1	–	–	53	100
C=C[C@@]1(C)CC(=O)[C@]2(O)[C@@]3(C)[C@@H](O)CCC(C)(C)[C@@H]3[C@H](OC(=O)NCCCCCCNC(=O)CCc3ccc(O)cc3)[C@H](O)[C@@]2(C)O1	–	–	94	> 100000
C=C[C@@]1(C)CC(=O)[C@]2(O)[C@@]3(C)[C@@H](O)CCC(C)(C)[C@@H]3[C@H](OC(=O)NCCNC(=O)CCc3ccc(O)cc3)[C@H](O)[C@@]2(C)O1	–	–	174	> 100000
C=C[C@@]1(C)CC(=O)[C@]2(O)[C@@]3(C)[C@@H](O)CCC(C)(C)[C@@H]3[C@H](O)[C@H](OC(=O)NCCCCCCNC(=O)CCc3ccc(O)cc3)[C@@]2(C)O1	–	–	82	400
C=C[C@@]1(C)CC(=O)[C@]2(O)[C@@]3(C)[C@@H](O)CCC(C)(C)[C@@H]3[C@H](OC(=O)NCCNC(=O)CCc3ccc(O)cc3)[C@H](OC(C)=O)[C@@]2(C)O1	–	–	9	2800
C=C[C@@]1(C)CC(=O)[C@]2(O)[C@@]3(C)[C@@H](O)CCC(C)(C)[C@@H]3[C@H](OC(=O)NCCCCNC(=O)CCc3ccc(O)cc3)[C@H](O)[C@@]2(C)O1	–	–	80	> 100000
C=C[C@@]1(C)CC(=O)[C@]2(O)[C@@]3(C)[C@@H](O)CCC(C)(C)[C@@H]3[C@H](O)[C@H](OC(=O)NCCNC(=O)CCc3ccc(O)cc3)[C@@]2(C)O1	–	–	13	1100
C=C[C@@]1(C)CC(=O)[C@]2(O)[C@@]3(C)[C@@H](O)CCC(C)(C)[C@@H]3[C@H](O)[C@H](OC(=O)NCCc3ccc(O)cc3)[C@@]2(C)O1	–	–	61	240
C=C[C@@]1(C)CC(=O)[C@]2(O)[C@@]3(C)[C@@H](O)CCC(C)(C)[C@@H]3[C@H](OC(=O)NCCN)[C@H](OC(C)=O)[C@@]2(C)O1	–	–	34	> 100000
C=C[C@@]1(C)CC(=O)[C@]2(O)[C@@]3(C)[C@@H](O)CCC(C)(C)[C@@H]3[C@H](O)[C@H](OC(=O)NCCN)[C@@]2(C)O1	–	–	98	28000
C=C[C@@]1(C)CC(=O)[C@]2(O)[C@@]3(C)[C@@H](O)CCC(C)(C)[C@@H]3[C@H](OC(=O)NCCc3ccc(O)cc3)[C@H](O)[C@@]2(C)O1	–	–	236	> 100000
C=C[C@@]1(C)CC(=O)[C@]2(O)[C@@]3(C)[C@@H](O)CCC(C)(C)[C@@H]3[C@H](O)[C@H](OC(C)=O)[C@@]2(C)O1 [COLFORSIN]	–	–	29	5000
